Experimental data as given in paper PMC2568956, “The Antimicrobial Peptide Histatin-5 Causes a Spatially Restricted Disruption on the Candida albicans Surface, Allowing Rapid Entry of the Peptide into the Cytoplasm” (PLoS Pathogens, 2008).

Experiments:
S. cerevisiae [1] = conditions: cited from earlier work
C. albicans cells [2] = experiment: Hst-5 localization studies by fluorescence microscopy; type: cell-based, Candida albicans
Protocol: (§1) The intracellular localization of FITC-Hst-5 (5, 10, 20, and 50 µM) and FITC-m68 (5, 10, 20, 50, and 200 µM) was investigated either alone or in a double-labeling experiment using FM4-64 (Molecular Probes, Inc. Eugene, OR). Yeast cells in 50 µl (∼10^6 cells/ml) were incubated for 30 minutes at 30°C with 10 µM FITC-Hst-5 and 10 µM FM4-64; the cells were then washed twice with 10 mM NaN3 and 10 mM NaF in 20 mM PBS buffer, and analyzed immediately by wide-field fluorescence microscopy.
(§2) Wide-field fluorescence images were obtained on either Zeiss Axioplan 2 or the inverted Zeiss Axio Observer.Z1 Microscope (Carl Zeiss MicroImaging, Inc. Thornwood, NY) fluorescent system, equipped with the AttoArc HBO 100 and the X-Cite series 120 mercury lamps, respectively. Images were taken using a 100× NA 1.4 objective. Both fluorescence microscopes were equipped with GFP, RFP, and DAPI filter sets.

C. glabrata [3] = experiment: FITC-Hst-5 localization in C. glabrata by fluorescence microscopy; type: cell-based, Candida glabrata; conditions: 50 µM FITC-Hst-5, 30 minutes, 30°C, fixed exposure time 9 ms
Protocol: as §1, §2

C. albicans = tested on: C. albicans; parameters: method as in 4 sources, one per row (each row's own in cited_ref): ref 3, 4 = [3]; PMID 2406266; 3 Raj PA Edgerton M Levine MJ 1990 Salivary histatin 5: dependence of sequence, chain length, and helical conformation for candidacidal activity. J Biol Chem 265 3898 3905 2406266 || [4]; PMID 1855975; doi:10.1128/iai.59.8.2549-2554.1991; 4 Xu T Levitz SM Diamond RD Oppenheim FG 1991 Anticandidal activity of major human salivary histatins. Infect Immun 59 2549 2554 1855975 10.1128/iai.59.8.2549-2554.1991 PMC258054 ||| ref 37 = [37]; PMID 8945538; doi:10.1128/iai.64.12.5000-5007.1996; 37 Tsai H Raj PA Bobek LA 1996 Candidacidal activity of recombinant human salivary histatin-5 and variants. Infect Immun 64 5000 5007 8945538 10.1128/iai.64.12.5000-5007.1996 PMC174480 ||| ref 10, 13, 49 = [10]; PMID 10066791; doi:10.1074/jbc.274.11.7286; 10 Helmerhorst EJ Breeuwer P van't Hoff W Walgreen-Weterings E Oomen LC 1999 The cellular target of histatin 5 on Candida albicans is the energized mitochondrion. J Biol Chem 274 7286 7291 10066791 10 || [13]; PMID 10471575; doi:10.1128/aac.43.9.2256; 13 Xu Y Ambudkar I Yamagishi H Swaim W Walsh TJ 1999 Histatin 3-mediated killing of Candida albicans : effect of extracellular salt concentration on binding and internalization. Antimicrob Agents Chem || [49]; PMID 11083804; doi:10.1128/iai.68.12.6848-6856.2000; 49 Koshlukova SE Araujo MW Baev D Edgerton M 2000 Released ATP is an extracellular cytotoxic mediator in salivary histatin 5-induced killing of Candida albicans . Infect Immun 68 6848 6856 11083804 10 ||| ref 65, 66 = [65]; PMID 11204768; doi:10.1023/a:1026572128004; 65 van't Hoff W Reijnders I Helmerhorst E Walgreen-Weterings E Simoons-Smit I 2000 Synergistic effects of low doses of histatin 5 and its analogues on amphotericin B anti-mycotic activity. Antonie Van || [66]; PMID 16291868; doi:10.1093/jac/dki402; 66 Tanida T Okamoto T Ueta E Yamamoto T Osaki T 2006 Antimicrobial peptides enhance the candidacidal activity of antifungal drugs by promoting the efflux of ATP from Candida cells. J Antimicrob Chemot; conditions: cited from earlier work
[4] = tested on: C. albicans wild-type cells; experiment: Hst-5 localization in cells treated with latrunculin A or cytochalasin A; type: cell-based, Candida albicans; conditions: cells pre-treated with 50 µM latrunculin A or 5 µM cytochalasin A for 60 minutes at room temperature, then 5 µM FITC-Hst-5, 30 minutes, 30°C
Protocol: (§3) To depolarize F-actin, cells were treated with either 5 µM cytochalasin A or 50 µM latrunculin A (Sigma, St. Louis, MO) for 1 hour at room temperature. The control cells (wild-type and myo5) were treated with the equivalent volume of the DMSO solvent (0.5%). The cells were then exposed to 5 µM of FITC-Hst-5 for 30 minutes at 30°C. The cells were then washed twice with buffer containing NaN3 and NaF and analyzed by wide-field fluorescence microscopy and flow cytometry.

[5] = tested on: C. albicans vps36 and snf7 mutant cells; experiment: Hst-5 localization in vps36 and snf7 mutant cells by fluorescence microscopy; type: cell-based, Candida albicans; conditions: 10 µM FITC-Hst-5 and 10 µM FM4-64, 30 minutes, 30°C
Protocol: as §1, §2

C. albicans cells [6] = type: cell-based, Candida albicans; conditions: 10 µM FITC-Hst-5, 30 minutes, 30°C, cell sorting, ~200 cells plated on YPD, overnight 30°C, triplicate cultures
Protocol: C. albicans cells were incubated for 30 minutes with 10 µM of FITC-Hst-5 at 30°C. The cells were then washed twice with 20 mM PBS buffer and under went flow cytometric cell sorting using the DAKO Cytomation MoFlo Flow Cytometer (DAKO, Glostrup, Denmark). The results were analyzed on a PC using the software package Summit (version 4.0) provided by DAKO. The cells were sorted by gating the two peaks of the histogram representing vacuolar and cytoplasmic localization of Hst-5. Cellular localization of Hst-5 was confirmed with fluorescence microscopy. The sorted cells were then plated onto YPD plates and incubated overnight at 30°C (data as a mean±1SD of triplicate cultures).

C. glabrata [7] = conditions: cited from earlier work
S. cerevisiae [8] = experiment: FITC-Hst-5 localization in S. cerevisiae by fluorescence microscopy; type: cell-based, Saccharomyces cerevisiae; conditions: 50 µM FITC-Hst-5, 30 minutes, 30°C, fixed exposure time 9 ms
Protocol: as §1, §2

[9] = liposome model system; cited from earlier work
Protocol: Histatins are a family of low-molecular weight histidine-rich cationic peptides that are found specifically in human salivary secretions. […] It kills C. albicans in vitro at physiological concentrations (15–30 µM),[4]. Structural studies of Hst-5 have shown that it takes on a random coil structure in aqueous solvents and adopts a largely α-helical conformation in non-aqueous solutions [5],[6]. Many antimicrobial cationic peptides form either α ...

C. albicans cells [10] = experiment: Concentration-dependent localization of FITC-Hst-5 by flow cytometry (FACS analysis); type: cell-based, Candida albicans; conditions: 30°C, ~10^6 cells/ml; for Percent of population: M2 (Hst-5 localized to the cytoplasm): high intensity peak; for Percent of population: M1 (Hst-5 localized to the vacuole): low intensity peak
Protocol: as §1
(§4) The distribution of FITC-labeled Hst-5 over the cell population was investigated by using a dual laser fluorescence-activated cell sorter (BD FACSCalibur System, Becton Dickinson, San Jose, CA). The results were analyzed with the software package CellQuest Pro (version 5.1.1) provided by Beckton Dickinson.

C. albicans myo5 cells = experiment: FITC-Hst-5 localization in myo5 mutant cells by flow cytometry; type: cell-based, Candida albicans; conditions: 10 µM FITC-Hst-5 and 10 µM FM4-64, 10 minutes, 30°C
Protocol: The intracellular localization of FITC-Hst-5 (5, 10, 20, and 50 µM) and FITC-m68 (5, 10, 20, 50, and 200 µM) was investigated either alone or in a double-labeling experiment using FM4-64 (Molecular Probes, Inc. Eugene, OR). […]
as §3, §4

[11] = 50 and 200 µM FITC-m68, 30°C, 30 minutes

Compound: C[C@H](NC(=O)[C@H](Cc1cnc[nH]1)NC(=O)[C@H](CO)NC(=O)[C@@H](N)CC(=O)O)C(=O)N[C@@H](CCCCN)C(=O)N[C@@H](CCCNC(=N)N)C(=O)N[C@@H](Cc1cnc[nH]1)C(=O)N[C@@H](Cc1cnc[nH]1)C(=O)NCC(=O)N[C@@H](Cc1ccc(O)cc1)C(=O)N[C@@H](CCCCN)C(=O)N[C@@H](CCCNC(=N)N)C(=O)N[C@@H](CCCCN)C(=O)N[C@@H](Cc1ccccc1)C(=O)N[C@@H](Cc1cnc[nH]1)C(=O)N[C@@H](CCC(=O)O)C(=O)N[C@@H](CCCCN)C(=O)N[C@@H](Cc1cnc[nH]1)C(=O)N[C@@H](Cc1cnc[nH]1)C(=O)N[C@@H](CO)C(=O)N[C@@H](Cc1cnc[nH]1)C(=O)N[C@@H](CCCNC(=N)N)C(=O)NCC(=O)N[C@@H](Cc1ccc(O)cc1)C(=O)O [Hst-5, histatin-5]
- resistance of the yeast to the peptide (S. cerevisiae [1]): marked resistance
- cellular localization (C. albicans cells [2]; 5 µM FITC-Hst-5, 30 minutes, fluorescence microscopy): mostly vacuolar localization
- cellular localization (C. albicans cells [2]; 20 µM FITC-Hst-5, pH 4.5, 30 minutes, 30°C): a preponderance of cells had Hst-5 localized within the cytoplasm
- cellular localization (C. albicans cells [2]; 20 µM FITC-Hst-5, pH 9.0, 30 minutes, 30°C): no cytoplasmic localization was observed
- cellular localization (C. albicans cells [2]; 50 µM FITC-Hst-5, 30 minutes, fluorescence microscopy): largely cytoplasmic localization with little vacuolar fluorescence
- cellular localization (C. glabrata [3]): predominantly localized to the vacuole
- killing of C. albicans in combination (C. albicans; combined with amphotericin B): strong synergistic killing
- concentration that kills C. albicans in vitro (physiological concentrations) (C. albicans; in vitro): 15–30 µM
- cellular localization [4]: observed in the cytoplasm in a majority of the cells
- cellular localization [5]: excluded from the lumen of vacuole-like membrane structures
- colony formation of sorted cells with cytoplasmic Hst-5 (C. albicans cells [6]): none
- resistance of the yeast to the peptide (C. glabrata [7]): marked resistance
- cellular localization (S. cerevisiae [8]): found bound to the cell surface
- lytic effect [9]: little lytic effect

Compound: DSHAKRHHGYKREFHEKHHSHGGY [FITC-m68, FITC-labeled Hst-5 m68]
- cytoplasmic localization (C. albicans cells [2]; 5, 10 and 20 µM FITC-m68, 30°C, 30 minutes (data not shown)): not observed
- cellular localization (C. albicans cells [2]; [11]): localized to the vacuole in the majority of cells
- cytoplasmic localization (C. albicans cells [2]; [11]): only seen in a small portion of the cell population

Compound: DSHAKRHHGYKREFHEKHHSHGGY [m68, variant of Hst-5 reported by Tsai et al.: lysine-13 replaced with glutamic acid and arginine 22 with glycine, reference compound]
- killing ability relative to Hst-5 (C. albicans): significant reduction

Compound: DSHAKRHHGYKRKFHEKHHSHRGY [FITC-Hst-5, FITC-labeled Hst-5]
- Percent of population: M2 (Hst-5 localized to the cytoplasm) (C. albicans cells [10]; 5 µM FITC-Hst-5, 30 minutes): 1.94%
- Percent of population: M1 (Hst-5 localized to the vacuole) (C. albicans cells [10]; 5 µM FITC-Hst-5, 30 minutes): 96.02%
- Percent of population: M2 (Hst-5 localized to the cytoplasm) (C. albicans cells [10]; 10 µM FITC-Hst-5, 30 minutes): 34.63%
- Percent of population: M1 (Hst-5 localized to the vacuole) (C. albicans cells [10]; 10 µM FITC-Hst-5, 30 minutes): 64.02%
- Percent of population: M2 (Hst-5 localized to the cytoplasm) (C. albicans cells [10]; 20 µM FITC-Hst-5, 30 minutes): 70.43%
- Percent of population: M1 (Hst-5 localized to the vacuole) (C. albicans cells [10]; 20 µM FITC-Hst-5, 30 minutes): 29.69%
- Percent of population: M2 (Hst-5 localized to the cytoplasm) (C. albicans cells [10]; 50 µM FITC-Hst-5, 30 minutes): 93.44%
- Percent of population: M1 (Hst-5 localized to the vacuole) (C. albicans cells [10]; 50 µM FITC-Hst-5, 30 minutes): 6.50%
- population with cytoplasmic localization (C. albicans myo5 cells): 19.01%
- population with plasma membrane localization (C. albicans myo5 cells): 80.99%
